Source: PubChem BioAssay AID1963840 (Molecular Pharmacology Branch, DTP, NCI, 2024)
pIC50: −log10 of the molar value.

Tested on: 695427-040-R-J1-PDC complex spheroid viability
Assay: Anticancer human tumor 695427-040-R-J1-PDC patient-derived colon adenocarcinoma cell line growth inhibition [POLQ]
Details: for pIC50: curve of first compound; for viability, T/C: stronger effect = lower value
How it was run: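 Growth inhibition in 3D: complex spheroids (tumor PDC, HUVEC, MSC) treated with POLQ inhibitor combinations; where Cmax unknown, highest tested concentration 10 microM, except SN-38 at 1 microM.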

[1] = second compound 0.0316 µM, first compound 0.0316 µM
[2] = second compound 0.0316 µM, first compound 0.1 µM
[3] = second compound 0.0316 µM, first compound 0.316 µM
[4] = second compound 0.0316 µM, first compound 1 µM
[5] = second compound 0.0316 µM, first compound 3.16 µM
[6] = second compound 0.0316 µM, first compound 10 µM
[7] = second compound 0.1 µM, first compound 0.0316 µM
[8] = second compound 0.1 µM, first compound 0.1 µM
[9] = second compound 0.1 µM, first compound 0.316 µM
[10] = second compound 0.1 µM, first compound 1 µM
[11] = second compound 0.1 µM, first compound 3.16 µM
[12] = second compound 0.1 µM, first compound 10 µM
[13] = second compound 0.316 µM, first compound 0.0316 µM
[14] = second compound 0.316 µM, first compound 0.1 µM
[15] = second compound 0.316 µM, first compound 0.316 µM
[16] = second compound 0.316 µM, first compound 1 µM
[17] = second compound 0.316 µM, first compound 3.16 µM
[18] = second compound 0.316 µM, first compound 10 µM
[19] = second compound 1 µM, first compound 0.0316 µM
[20] = second compound 1 µM, first compound 0.1 µM
[21] = second compound 1 µM, first compound 0.316 µM
[22] = second compound 1 µM, first compound 1 µM
[23] = second compound 1 µM, first compound 3.16 µM
[24] = second compound 1 µM, first compound 10 µM
[25] = second compound 3.16 µM, first compound 0.0316 µM
[26] = second compound 3.16 µM, first compound 0.1 µM
[27] = second compound 3.16 µM, first compound 0.316 µM
[28] = second compound 3.16 µM, first compound 1 µM
[29] = second compound 3.16 µM, first compound 3.16 µM
[30] = second compound 3.16 µM, first compound 10 µM
[31] = second compound 10 µM, first compound 0.0316 µM
[32] = second compound 10 µM, first compound 0.1 µM
[33] = second compound 10 µM, first compound 0.316 µM
[34] = second compound 10 µM, first compound 1 µM
[35] = second compound 10 µM, first compound 3.16 µM
[36] = second compound 10 µM, first compound 10 µM
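Further: spheroids exposed to compounds for seven days.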
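Wherever viability, T/C is given: 100% = DMSO vehicle control viability.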

Question: With `CCCS(=O)(=O)Nc1ccc(F)c(C(=O)c2c[nH]c3ncc(-c4ccc(Cl)cc4)cc23)c1F` + Nc1ccc(C#CCN(C(=O)Cc2ncc(C(F)(F)F)cc2C(F)(F)F)c2ccc(F)cc2)nn1 as the compound, how does the pIC50 (second compound 0.0316 µM) read?
Answer: < 5.00

Question: And the pIC50 (second compound 0.1 µM)?
Answer: < 5.00

Question: What about the pIC50 (second compound 0.316 µM) of the same compound?
Answer: < 5.00

Question: What about the pIC50 (second compound 1 µM) of the same compound?
Answer: < 5.00

Question: And the pIC50 (second compound 3.16 µM)?
Answer: < 5.00

Question: What about the pIC50 (second compound 10 µM) of the same compound?
Answer: < 5.00

Question: What about the viability, T/C [1] of the same compound?
Answer: 101%

Question: What about the viability, T/C [2] of the same compound?
Answer: 100%

Question: And the viability, T/C [3]?
Answer: 102%

Question: What about the viability, T/C [4] of the same compound?
Answer: 111%

Question: What about the viability, T/C [5] of the same compound?
Answer: 117%

Question: And the viability, T/C [6]?
Answer: 88.8%

Question: What about the viability, T/C [7] of the same compound?
Answer: 112%

Question: What about the viability, T/C [8] of the same compound?
Answer: 108%

Question: What about the viability, T/C [9] of the same compound?
Answer: 105%

Question: What about the viability, T/C [10] of the same compound?
Answer: 106%

Question: And the viability, T/C [11]?
Answer: 113%

Question: And the viability, T/C [12]?
Answer: 87.1%

Question: And the viability, T/C [13]?
Answer: 100%

Question: What about the viability, T/C [14] of the same compound?
Answer: 108%

Question: What about the viability, T/C [15] of the same compound?
Answer: 107%

Question: And the viability, T/C [16]?
Answer: 102%

Question: And the viability, T/C [17]?
Answer: 106%

Question: What about the viability, T/C [18] of the same compound?
Answer: 85.4%

Question: And the viability, T/C [19]?
Answer: 103%

Question: What about the viability, T/C [20] of the same compound?
Answer: 99.9%

Question: And the viability, T/C [21]?
Answer: 107%

Question: What about the viability, T/C [22] of the same compound?
Answer: 102%

Question: What about the viability, T/C [23] of the same compound?
Answer: 110%

Question: And the viability, T/C [24]?
Answer: 81.7%

Question: What about the viability, T/C [25] of the same compound?
Answer: 109%

Question: What about the viability, T/C [26] of the same compound?
Answer: 100%

Question: And the viability, T/C [27]?
Answer: 103%

Question: And the viability, T/C [28]?
Answer: 107%

Question: And the viability, T/C [29]?
Answer: 111%

Question: And the viability, T/C [30]?
Answer: 88.8%

Question: What about the viability, T/C [31] of the same compound?
Answer: 95.1%

Question: And the viability, T/C [32]?
Answer: 92.8%

Question: And the viability, T/C [33]?
Answer: 110%

Question: What about the viability, T/C [34] of the same compound?
Answer: 95.3%

Question: What about the viability, T/C [35] of the same compound?
Answer: 97.2%

Question: And the viability, T/C [36]?
Answer: 85.7%

Question: With `COc1ccc([C@@H](O)c2cc(-c3ncnc4cc(N5CCOCC5)ccc34)c(F)cc2Cl)nn1` + Nc1ccc(C#CCN(C(=O)Cc2ncc(C(F)(F)F)cc2C(F)(F)F)c2ccc(F)cc2)nn1 as the compound, how does the pIC50 (second compound 0.0316 µM) read?
Answer: < 5.00

Question: What about the pIC50 (second compound 0.1 µM) of the same compound?
Answer: < 5.00

Question: What about the pIC50 (second compound 0.316 µM) of the same compound?
Answer: < 5.00

Question: What about the pIC50 (second compound 1 µM) of the same compound?
Answer: < 5.00

Question: What about the pIC50 (second compound 3.16 µM) of the same compound?
Answer: < 5.00

Question: What about the pIC50 (second compound 10 µM) of the same compound?
Answer: < 5.00

Question: What about the viability, T/C [1] of the same compound?
Answer: 101%

Question: And the viability, T/C [2]?
Answer: 91.6%

Question: What about the viability, T/C [3] of the same compound?
Answer: 99.2%

Question: What about the viability, T/C [4] of the same compound?
Answer: 89.7%

Question: And the viability, T/C [5]?
Answer: 84.3%

Question: What about the viability, T/C [6] of the same compound?
Answer: 60.7%

Question: And the viability, T/C [7]?
Answer: 105%

Question: What about the viability, T/C [8] of the same compound?
Answer: 108%

Question: What about the viability, T/C [9] of the same compound?
Answer: 98.8%

Question: What about the viability, T/C [10] of the same compound?
Answer: 89.3%

Question: And the viability, T/C [11]?
Answer: 86.5%

Question: What about the viability, T/C [12] of the same compound?
Answer: 54%

Question: And the viability, T/C [13]?
Answer: 108%

Question: What about the viability, T/C [14] of the same compound?
Answer: 106%

Question: And the viability, T/C [15]?
Answer: 99.7%

Question: What about the viability, T/C [16] of the same compound?
Answer: 89.6%

Question: And the viability, T/C [17]?
Answer: 89.9%

Question: What about the viability, T/C [18] of the same compound?
Answer: 63.9%

Question: And the viability, T/C [19]?
Answer: 108%

Question: What about the viability, T/C [20] of the same compound?
Answer: 97.5%

Question: And the viability, T/C [21]?
Answer: 91.1%

Question: What about the viability, T/C [22] of the same compound?
Answer: 91%

Question: And the viability, T/C [23]?
Answer: 86.2%

Question: What about the viability, T/C [24] of the same compound?
Answer: 52.2%

Question: And the viability, T/C [25]?
Answer: 101%

Question: And the viability, T/C [26]?
Answer: 97.4%

Question: What about the viability, T/C [27] of the same compound?
Answer: 99.2%

Question: And the viability, T/C [28]?
Answer: 90.9%

Question: And the viability, T/C [29]?
Answer: 78.3%

Question: What about the viability, T/C [30] of the same compound?
Answer: 56.2%

Question: And the viability, T/C [31]?
Answer: 101%

Question: What about the viability, T/C [32] of the same compound?
Answer: 92.5%

Question: What about the viability, T/C [33] of the same compound?
Answer: 90.1%

Question: What about the viability, T/C [34] of the same compound?
Answer: 89.8%

Question: And the viability, T/C [35]?
Answer: 82.1%

Question: And the viability, T/C [36]?
Answer: 55.1%

Question: With `Cn1ncnc1[C@H]1c2n[nH]c(=O)c3cc(F)cc(c23)N[C@@H]1c1ccc(F)cc1` + Nc1ccc(C#CCN(C(=O)Cc2ncc(C(F)(F)F)cc2C(F)(F)F)c2ccc(F)cc2)nn1 as the compound, how does the pIC50 (second compound 0.0316 µM) read?
Answer: < 7.00

Question: And the pIC50 (second compound 0.1 µM)?
Answer: < 7.00

Question: And the pIC50 (second compound 0.316 µM)?
Answer: < 7.00

Question: And the pIC50 (second compound 1 µM)?
Answer: < 7.00

Question: What about the pIC50 (second compound 3.16 µM) of the same compound?
Answer: < 7.00

Question: And the pIC50 (second compound 10 µM)?
Answer: < 7.00

Question: And the viability, T/C (second compound 0.0316 µM, first compound 0.000316 µM)?
Answer: 109%

Question: And the viability, T/C (second compound 0.0316 µM, first compound 0.001 µM)?
Answer: 103%

Question: What about the viability, T/C (second compound 0.0316 µM, first compound 0.00316 µM) of the same compound?
Answer: 109%

Question: And the viability, T/C (second compound 0.0316 µM, first compound 0.01 µM)?
Answer: 103%

Question: What about the viability, T/C [1] of the same compound?
Answer: 111%

Question: What about the viability, T/C [2] of the same compound?
Answer: 95.1%

Question: And the viability, T/C (second compound 0.1 µM, first compound 0.000316 µM)?
Answer: 100%

Question: What about the viability, T/C (second compound 0.1 µM, first compound 0.001 µM) of the same compound?
Answer: 122%

Question: And the viability, T/C (second compound 0.1 µM, first compound 0.00316 µM)?
Answer: 109%

Question: What about the viability, T/C (second compound 0.1 µM, first compound 0.01 µM) of the same compound?
Answer: 104%

Question: What about the viability, T/C [7] of the same compound?
Answer: 108%

Question: What about the viability, T/C [8] of the same compound?
Answer: 88.4%

Question: What about the viability, T/C (second compound 0.316 µM, first compound 0.000316 µM) of the same compound?
Answer: 110%

Question: What about the viability, T/C (second compound 0.316 µM, first compound 0.001 µM) of the same compound?
Answer: 109%

Question: And the viability, T/C (second compound 0.316 µM, first compound 0.00316 µM)?
Answer: 88.5%

Question: What about the viability, T/C (second compound 0.316 µM, first compound 0.01 µM) of the same compound?
Answer: 102%

Question: And the viability, T/C [13]?
Answer: 110%

Question: What about the viability, T/C [14] of the same compound?
Answer: 105%

Question: What about the viability, T/C (second compound 1 µM, first compound 0.000316 µM) of the same compound?
Answer: 107%

Question: What about the viability, T/C (second compound 1 µM, first compound 0.001 µM) of the same compound?
Answer: 102%

Question: And the viability, T/C (second compound 1 µM, first compound 0.00316 µM)?
Answer: 104%

Question: What about the viability, T/C (second compound 1 µM, first compound 0.01 µM) of the same compound?
Answer: 99.7%

Question: And the viability, T/C [19]?
Answer: 119%

Question: And the viability, T/C [20]?
Answer: 92.8%

Question: What about the viability, T/C (second compound 3.16 µM, first compound 0.000316 µM) of the same compound?
Answer: 105%

Question: And the viability, T/C (second compound 3.16 µM, first compound 0.001 µM)?
Answer: 100%

Question: What about the viability, T/C (second compound 3.16 µM, first compound 0.00316 µM) of the same compound?
Answer: 104%

Question: What about the viability, T/C (second compound 3.16 µM, first compound 0.01 µM) of the same compound?
Answer: 103%

Question: What about the viability, T/C [25] of the same compound?
Answer: 108%

Question: And the viability, T/C [26]?
Answer: 89%

Question: What about the viability, T/C (second compound 10 µM, first compound 0.000316 µM) of the same compound?
Answer: 102%

Question: What about the viability, T/C (second compound 10 µM, first compound 0.001 µM) of the same compound?
Answer: 90.9%

Question: And the viability, T/C (second compound 10 µM, first compound 0.00316 µM)?
Answer: 99%

Question: And the viability, T/C (second compound 10 µM, first compound 0.01 µM)?
Answer: 88.1%

Question: What about the viability, T/C [31] of the same compound?
Answer: 102%

Question: What about the viability, T/C [32] of the same compound?
Answer: 86.1%
